# Laboratory results as given in patent US4550186A, “Binuclear copper (II) carboxylates formed from amine-carboxyboranes” (Duke University, priority 1983, dated 1985).
# Legend:
# HMG CoA Reductase = biological target: T1, HMG CoA Reductase (Mus musculus, UniProt Q01237); experiment: In vivo liver enzyme study: HMG CoA reductase; settings: CF1 liver after 16 days i.p.
# T1 construct: 10% homogenates of CF1 male mouse liver; from tissue; host or cells: CF1 male mouse liver, post-mitochondrial supernatant
# T1 sequence (Q01237 1-887): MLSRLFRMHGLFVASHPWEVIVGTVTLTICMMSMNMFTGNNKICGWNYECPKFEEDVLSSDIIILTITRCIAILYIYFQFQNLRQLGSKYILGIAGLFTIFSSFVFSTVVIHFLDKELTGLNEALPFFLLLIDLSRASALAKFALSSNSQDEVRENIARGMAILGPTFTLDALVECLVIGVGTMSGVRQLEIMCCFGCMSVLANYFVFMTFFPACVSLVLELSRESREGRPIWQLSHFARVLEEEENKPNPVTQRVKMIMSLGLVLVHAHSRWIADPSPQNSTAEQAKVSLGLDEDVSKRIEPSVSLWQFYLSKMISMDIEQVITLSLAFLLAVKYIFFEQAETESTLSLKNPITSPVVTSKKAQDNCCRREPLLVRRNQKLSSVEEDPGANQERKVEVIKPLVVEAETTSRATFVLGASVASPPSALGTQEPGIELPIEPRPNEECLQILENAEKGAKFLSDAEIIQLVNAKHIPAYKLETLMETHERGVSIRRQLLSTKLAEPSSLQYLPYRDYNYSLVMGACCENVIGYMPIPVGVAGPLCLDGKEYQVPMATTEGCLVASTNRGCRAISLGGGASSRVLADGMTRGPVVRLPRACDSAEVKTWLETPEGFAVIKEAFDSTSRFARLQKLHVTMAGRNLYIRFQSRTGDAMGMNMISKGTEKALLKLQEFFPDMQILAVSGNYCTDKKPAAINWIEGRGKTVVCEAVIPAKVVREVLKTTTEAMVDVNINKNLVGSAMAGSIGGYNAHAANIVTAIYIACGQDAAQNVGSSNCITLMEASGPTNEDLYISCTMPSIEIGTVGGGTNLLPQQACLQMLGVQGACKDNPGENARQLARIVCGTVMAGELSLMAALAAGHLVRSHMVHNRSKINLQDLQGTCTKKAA
# Experimental: In vitro enzymatic studies were determined using 10% homogenates of CF1 male mouse liver with 50-200 μM of test drugs. In vivo enzymatic studies were determined using 10% homogenates of liver from CF1 male mice obtained after administering the agents for 16 days at a dose ranging from 2.5-20 mg/kg/day intraperitoneally. The liver homogenates for both in vitro and in vivo studies were prepared in 0.25M sucrose and 0.001M (ethylenedinitrilo)tetraacetic acid. Acetyl coenzyme A synthetase and adenosine triphosphate dependent citrate lyase activities were determined spectrophotometrically at 540 nm as the hydroxylamate of acetyl coenzyme A formed after 30 min at 37° C. Mitochondrial citrate exchange was determined by the procedure of Robinson et al [Eur. J. Biochem., 216, 63 (1970)] using ^14 C-sodium bicarbonate (41 mCi/mmol) incorporated into mitochondrial ^14 C-citrate after isolating rat mitochondria (9000 g×10 min) from the homogenates. The exchanges of the ^14 C-citrate were determined after incubating the mitochondrial fraction which was loaded with labeled citrate and test drugs for 10 min. Then the radioactivity was measured in the mitochondrial and supernantant fractions in scintillation fluid and expressed as a percentage. Cholesterol side chain oxidation was determined by the method of Kritchevsky and Tepper [Artherosclerosis, 18, 93 (1973)] using (26-^14 C) cholesterol (50 mCi/mmol) and mitochondria isolated from rat liver homogenates. […] Fatty acid synthetase activity was determined by the method of Brady et al [J. Biol. Chem., 235, 3093 (1960)] using [2-^14 C] malonyl-coenzyme A (37.5 mCi/mmol) which was incorporated into newly synthesized fatty acids that were extracted with ether and counted. Acyl transferase activity was determined with glycerol-3phosphate [L-2-^3 H(N)] […] HCl and counted. Phosphatidate phosphohydrolase activity was measured as the inorganic phosphate released after 30 min from phosphatidic acid by the method of Mavis et al [J. Lipid Res., 19, 467 (1978)]. […]
# Ehrlich ascites cells = experiment: Number of cells in ascites fluid; assay type: in vivo, mouse
# Experimental: CF1 male mice (~30 g) were implanted with 2×10^6 Ehrlich ascites tumor cells, intraperitoneally on Day 0. Compound I was suspended by homogenation in 0.05% polysorbate.80-water and administered intraperitoneally at 10 and 20 mg/kg for 9 days to determine its effectiveness for inhibition of tumor growth. Mice were sacrificed on Day 10, and the ascites fluid was collected from the peritoneal cavity. The volume and ascrit (packed cell volume) were determined for each animal and the percent inhibition of tumor growth was calculated. For the metabolic studies, mice were treated on Days 8 and 9 with 10 mg/kg of Compound I, intraperitoneally. The animal was sacrificed on Day 10 and the ascites fluid harvested. The in vitro metabolic studies were performed at […] final concentration of Compound I.
substance,measurement,setting,value
{Cu[(CH3)3 N.BH2 CO2 ]2.(CH3)3 N.BH2 COOH} [Compound I],HMG CoA Reductase,HMG CoA Reductase; 2.5 mg/kg,112 ± 8% of control
same,HMG CoA Reductase,HMG CoA Reductase; 5.0 mg/kg,108 ± 9% of control
same,HMG CoA Reductase,HMG CoA Reductase; 10 mg/kg,102 ± 8% of control
same,number of cells in the ascites fluid,Ehrlich ascites cells; after drug administration for two days (control 226×10^6 /ml),1.02e+08 mL⁻¹
same,Number of cells × 10^6 /ml ascites fluid,"Ehrlich ascites cells; in vivo, 10 mg/kg/day I.P. on Days 8 and 9",45 ± 4 % Control
